The source of these data is patent US12319648B2, “Fluorinated phenylacetic acid derivatives in a weed control method” (SYNGENTA CROP PROTECTION AG, priority 2019, dated 2025).

What all share (format): in vivo
Assay [1] concerns Solanum nigrum (SOLNI). In words: Pre-emergence herbicidal glasshouse test. The settings on record: for % phytotoxicity SOLNI: comparative pre-emergence test. The method, boiled down: (§1)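 Plants were sprayed one day after sowing (pre-emergence) or after 8 days' growth (post-emergence) at 250 g/ha unless otherwise stated, in acetone/water (50:50) with 0.5% Tween 20. Glasshouse conditions were 24/16 °C, 14 h light, 65% humidity. Damage was scored after 13 days on a five-point scale (5=81-100%; 1=0-20%).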

The subject of assay [2] is Lolium perenne (LOLPE). The assay can be described thus: Pre-emergence herbicidal glasshouse test. Particulars: for % phytotoxicity LOLPE: comparative pre-emergence test. The method, boiled down:
as §1

In assay [3] the test system is Ipomoea hederacea (IPOHE). The assay can be described thus: Pre-emergence herbicidal glasshouse test. Particulars: for % phytotoxicity IPOHE: comparative pre-emergence test. The method, boiled down:
as §1

Assay [4] concerns Amaranthus retoflexus (AMARE). In words: Pre-emergence herbicidal glasshouse test. The settings on record: for % phytotoxicity AMARE: comparative pre-emergence test. Put shortly:
as §1

The subject of assay [5] is Echinochloa crus-galli (ECHCG). The assay can be described thus: Pre-emergence herbicidal glasshouse test. The settings on record: for % phytotoxicity ECHCG: comparative pre-emergence test. Put shortly:
as §1

Assay [6] has as its system Setaria faberi (SETFA). In words: Pre-emergence herbicidal glasshouse test. Particulars: for % phytotoxicity SETFA: comparative pre-emergence test. The method, boiled down: as §1
In assay [7] the test system is Solanum nigrum (SOLNI). In words: Post-emergence herbicidal glasshouse test. The settings on record: for % phytotoxicity SOLNI: comparative post-emergence test. The method, boiled down:
as §1

Assay [8] deals with Lolium perenne (LOLPE). In words: Post-emergence herbicidal glasshouse test. The settings on record: for % phytotoxicity LOLPE: comparative post-emergence test. The method, boiled down: as §1
The test system of assay [9] is Ipomoea hederacea (IPOHE). The assay can be described thus: Post-emergence herbicidal glasshouse test. The settings on record: for % phytotoxicity IPOHE: comparative post-emergence test. The method, boiled down:
as §1

For assay [10], the system named is Amaranthus retoflexus (AMARE). The assay can be described thus: Post-emergence herbicidal glasshouse test. The settings on record: for % phytotoxicity AMARE: comparative post-emergence test. Put shortly: as §1
The test system of assay [11] is Echinochloa crus-galli (ECHCG). The assay can be described thus: Post-emergence herbicidal glasshouse test. Particulars: for % phytotoxicity ECHCG: comparative post-emergence test. The method, boiled down: as §1
For assay [12], the system named is Setaria faberi (SETFA). In words: Post-emergence herbicidal glasshouse test. Particulars: for % phytotoxicity SETFA: comparative post-emergence test. The method, boiled down: as §1
Setting [13] is: pre-emergence, 250 g/ha, 13 days after application.
[14] abbreviates: post-emergence, 250 g/ha, 13 days after application.

In the case of `O=C(O)C(F)(F)c1cccc(Br)c1Cl` [Compound 1.037], the “percentage damage caused to the plant, five-point scale, SOLNI” value with Solanum nigrum (SOLNI) [1] (setting [13]) and in the assay on Solanum nigrum (SOLNI) [7] (setting [14]) was 5 (5=81-100%) in each case. Moreover, the “percentage damage caused to the plant, five-point scale, LOLPE” value in the assay on Lolium perenne (LOLPE) [2] (setting [13]) and in the assay on Lolium perenne (LOLPE) [8] (setting [14]) was 3 (3=41-60%) in each case. Also, the “percentage damage caused to the plant, five-point scale, IPOHE” value in assay [3] (setting [13]) and in assay [9] (setting [14]) was 4 (4=61-80%) throughout. Moreover, the “percentage damage caused to the plant, five-point scale, AMARE” value in assay [4] (setting [13]) and in assay [10] (setting [14]) was 5 (5=81-100%) each time. For the same compound, the “percentage damage caused to the plant, five-point scale, ECHCG” value in [5] (setting [13]) and in assay [11] (setting [14]) was 4 (4=61-80%) in each case. The “percentage damage caused to the plant, five-point scale, SETFA” value with Setaria faberi (SETFA) [6] (setting [13]) and in the assay on Setaria faberi (SETFA) [12] (setting [14]) was 4 (4=61-80%) in each case.
In the case of `O=C(O)C(Cl)(Cl)c1cccc(Cl)c1Cl` [Compound C1, reference compound], the “% phytotoxicity SOLNI” value is 60% with Solanum nigrum (SOLNI) [1] (500 g/ha), 70% with Solanum nigrum (SOLNI) [1] (1000 g/ha), 60% in the assay on Solanum nigrum (SOLNI) [7] (500 g/ha) and 70% in the assay on Solanum nigrum (SOLNI) [7] (1000 g/ha). The “% phytotoxicity LOLPE” value in the assay on Lolium perenne (LOLPE) [2] (500 g/ha) is given as 0%; with Lolium perenne (LOLPE) [2] (1000 g/ha), 0%; with Lolium perenne (LOLPE) [8] (500 g/ha), 0%; in the assay with Lolium perenne (LOLPE) [8] (1000 g/ha), 20%. For the same compound, the “% phytotoxicity IPOHE” value in assay [3] (500 g/ha) is listed as 30%; in [3] (1000 g/ha), 60%; in assay [9] (500 g/ha) it was 70%; in assay [9] (1000 g/ha), 80%. Further, the “% phytotoxicity AMARE” value in assay [4] (500 g/ha), in assay [4] (1000 g/ha), in assay [10] (500 g/ha) and in [10] (1000 g/ha) was 80% in each case. Also, the “% phytotoxicity ECHCG” value in assay [5] (500 g/ha) came out at 0%; in assay [5] (1000 g/ha), 0%; in assay [11] (500 g/ha) it was 0%; in [11] (1000 g/ha), 10%. Further, the “% phytotoxicity SETFA” value in the assay on Setaria faberi (SETFA) [6] (500 g/ha) is 0%; in the assay on Setaria faberi (SETFA) [6] (1000 g/ha), 0%; in the assay with Setaria faberi (SETFA) [12] (500 g/ha), 0%; with Setaria faberi (SETFA) [12] (1000 g/ha), 10%.
